From US4637902A, “Mixed anhydrides of carbamic and hydroxamic acids” (Fuji Photo Film Co., Ltd., priority 1983, dated 1987) come the findings set out here.

The data set is described as follows: Measurement of Decomposition Rate of Base Precursor (gelatin film on triacetyl cellulose, absorbance change). The class given is physicochemical. The note with it: for Half-Life Period t1/2: 140° C.; for K at 140° C. (× 10^2), first-order reaction rate constant: head multiplier × 10^2. The protocol:
Measurement of Decomposition Rate of Base Precursor About 400 mg of the base precursor of the present invention was dissolved in 25 ml of methanol. Separately, 400 mg of gelatin was dissolved in 5 ml of water with heating. After cooling, 5 ml of the above-described methanol solution was added thereto and the mixture well mixed. The resulting mixture solution was uniformly coated on a triacetyl cellulose support and dried to prepare samples. The absorbance of each of the samples at λ max (around 300 nm) was previously measured, then the sample was heated on a hot plate at a definite temperature. The change in absorbance versus time was plotted to calculate first-order reaction rate. Several examples of the reaction rate constants measured by the above-described method are given below.

As to `CN(C)C(=O)ONC(=O)c1ccccc1O` [Base Precursor No. (1), Salicylhydroxamic Acid, N,N-Dimethylcarbamate], the “Half-Life Period t1/2” value came to 10.3 s and the “K at 140° C. (× 10^2), first-order reaction rate constant” value is given as 6.7.
In the same order, the values of `CCN(CC)C(=O)ONC(=O)c1ccccc1O` [Base Precursor No. (37)] are 18.7 s and 3.7.
In the same order, the values of `CCCCN(CCCC)C(=O)ONC(=O)c1ccccc1O` [Base Precursor No. (38), Salicylhydroxamic Acid N,N-Dibutylcarbamate] are 7.7 s and 9.0.
